For experiment [1], the system named is patients with lactose intolerance. Conditions: cited from earlier work; for reduction in the hydrogen concentration compared to the placebo: p<0.001; for hydrogen concentration in expired air: placebo 51.46±16.12.
Experiment [2] concerns Male mice of the ICR strain. As to the kind of experiment: Diarrhoea induced by castor oil in mice. It counts as in vivo. The conditions noted are these: oral; for effect on diarrhoea induced by castor oil (percentage of mice that exhibited diarrhoea at the second hour): 30 minutes before castor oil 0.2 ml/mouse, evaluated 2 hours after castor oil, vs control. As for the experimental part:
In the following tests, the effect of two formulations and their individual constituents was evaluated in order to determine a possible synergistic effect among the individual components on diarrhoea induced by castor oil.
Male mice of the ICR strain supplied by the company Charles River and weighing 20-25 g were used. The animals were housed in temperature-controlled rooms (temperature of 23±2° C., humidity of 50±2%, 12-hour light-dark cycles) and had free access to water and food, consisting of a standard diet supplied by the company Mucedola Mangimi (Settimo Milanese, Italy). All experiments were performed in observance of Legislative Decree no. 116 of 27 Jan. 1992 and according to the guidelines of the Council of the European Union (86/609/EEC and 2010/63/EU).
The technique of Borrelli et al. (Borrelli F, Capasso F, Capasso R, Ascione V, Aviello G, Longo R, Izzo A A (2006). “Effect of Boswellia serrata on intestinal motility in rodents: inhibition of diarrhoea without constipation” Br J Pharmacol 148:553-560) was used. In practical terms, the mice were fasted for a period of 12 hours and then isolated in individual cages provided with a mesh on the bottom, set 5 cm above a sheet of absorbent paper. This enabled inspection of the excreted faeces. 30 minutes after administration of the samples to be tested, the animals received 0.2 ml of castor oil by means of a gastric probe. The diarrhoea was evaluated 15 minutes after the administration of the cathartic agent and every 15 minutes until the second hour. […]
Two formulations (according to the invention) were evaluated, consisting, respectively, of activated charcoal, Carum carvi, papain, α-galactosidase and β-galactosidase (total formulation) and activated charcoal, Carum carvi and papain (partial formulation). […]
The results are expressed as the mean±standard error of the mean (S.E.M.). The difference between two means was evaluated by means of Student's t-test. […]

This is an account of results in patent publication US20190374574A1, “COMPOSITION FOR THE TREATMENT OF GASTROINTESTINAL DISORDERS” (NEILOS S.R.L., priority 2017, published 2019).

Where two headings read alike, the source gives them in different places.

Regarding β-galactosidase, the “reduction in the hydrogen concentration compared to the placebo” value in experiment [1] (group A: 3000 U of lactase added to milk 10 hours prior to administration) is reported as 77%; in experiment [1] (group B: 6000 U of lactase added to milk 5 minutes prior to ingestion) it was 73%. Further, the “hydrogen concentration in expired air” value in experiment [1] (group A: 3000 U of lactase added to milk 10 hours prior) is 12.07±7.8 p.p.m; in experiment [1] (group B: 6000 U of lactase added to milk 5 minutes prior), 13.97±7.99 p.p.m. The “cumulative quantity of expired hydrogen vs group C (placebo)” value in experiment [1] (groups A and B) was “significantly lower”. In experiment [2], the “effect on diarrhoea induced by castor oil (percentage of mice that exhibited diarrhoea at the second hour)” value was “not capable of modifying the cathartic effect of the castor oil”.

B1: Papain: Papain (CAS N. 9001-73-4), cysteine-protease from Carica papaya, activity greater than or equal to 2.5 FIP UI/mg (protein, UniProt P00784 134-345, looked up)
Papain: IPEYVDWRQKGAVTPVKNQGSCGSCWAFSAVVTIEGIIKIRTGNLNEYSEQELLDCDRRSYGCNGGYPWSALQLVAQYGIHYRNTYPYEGVQRYCRSREKGPYAAKTDGVRQVQPYNEGALLYSIANQPVSVVLEAAGKDFQLYRGGIFVGPCGNKVDHAVAAVGYGPNYILIKNSWGTGWGENGYIRIKRGTGNSYGVCGLYTSSFYPVKN
On to B1, for which, in experiment [2], the “effect on diarrhoea induced by castor oil (percentage of mice that exhibited diarrhoea at the second hour)” value is on record as “significantly reduced diarrhoea”. For the same molecule, the “dose at which the reduction of castor oil diarrhoea was significant” value in experiment [2] (2 hours after castor oil) stood at 30 mg/kg.
